Measurements taken from patent US20060024264A1, “Antimicrobial copolymers and uses thereof” (priority 2004, published 2006).

System: E. coli
Experiment: Antimicrobial assays (MIC, cell growth by optical density at 595 nm)
Format: cell-based
Conditions: Escherichia coli; incubation time 18 hours; 2-fold dilution series 500-3.9 μg/mL
Description: Antimicrobial assays. Each polymer was dissolved in DMSO (5 mg/mL). […] The polymer solutions with E. coli were incubated at 36° C. for 18 hours, and cell growth was measured by optical density at λ=595 nm (Liu, D., et al., Angew. Chem. Int. Ed., 43:1158 (2004); Tew, G. N., et al., PNAS 99:5110 (2002)).

MIC: > 500 µg/mL
SMILES: C=C(C)C(=O)OCCN.Cl [Monomer, 2-aminoethyl methacrylate hydrochloride]
